Experimental data as given in ChEMBL document CHEMBL1201862, “PubChem BioAssay data set” (2004).
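Assay format: 96-well plates, 48-hour exposure. Abbreviation: GI50, concentration required for 50% inhibition of growth.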 Activity calls are given as the source filed them. Rule as the data show it: active = GI50 up to about 1.1 µM and inactive = higher.

How the values were obtained:
Experiment in all cases: DTP human tumour cell line panel, 48 h
LOX IMVI = tested on: LOX IMVI
OVCAR-8 = tested on: OVCAR-8
SK-OV-3 = tested on: SK-OV-3
UO-31 = tested on: UO-31
SK-MEL-2 = tested on: SK-MEL-2
COLO 205 = tested on: COLO 205
TK-10 = tested on: TK-10
M14 = tested on: M14
HT-29 = tested on: HT-29
HOP-18 = tested on: HOP-18
HOP-62 = tested on: HOP-62
CCRF-CEM = tested on: CCRF-CEM
OVCAR-3 = tested on: OVCAR-3
OVCAR-4 = tested on: OVCAR-4
SF-268 = tested on: SF-268
UACC-257 = tested on: UACC-257
SNB-19 = tested on: SNB-19
KM12 = tested on: KM12
HL-60 = tested on: HL-60
DMS-273 = tested on: DMS-273
RXF 631 = tested on: RXF 631
U-251 = tested on: U-251
ACHN = tested on: ACHN
HCC 2998 = tested on: HCC 2998
DMS-114 = tested on: DMS-114
SN12C = tested on: SN12C
EKVX = tested on: EKVX
HCT-15 = tested on: HCT-15
A549 = tested on: A549
NCI-H460 = tested on: NCI-H460
DLD-1 = tested on: DLD-1
Malme-3M = tested on: Malme-3M
MOLT-4 = tested on: MOLT-4
SW-620 = tested on: SW-620
OVCAR-5 = tested on: OVCAR-5
SF-295 = tested on: SF-295
XF498 = tested on: XF498
NCI-H522 = tested on: NCI-H522
CAKI-1 = tested on: CAKI-1
SNB-78 = tested on: SNB-78
SNB-75 = tested on: SNB-75
RPMI-8226 = tested on: RPMI-8226
NCI-H226 = tested on: NCI-H226
NCI-H23 = tested on: NCI-H23
SK-MEL-28 = tested on: SK-MEL-28
RXF 393 = tested on: RXF 393
K562 = tested on: K562
SK-MEL-5 = tested on: SK-MEL-5
HOP-92 = tested on: HOP-92
LXFL 529 = tested on: LXFL 529
786-0 = tested on: 786-0
KM-20L2 = tested on: KM-20L2
MDA-MB-231 = tested on: MDA-MB-231
DU-145 = tested on: DU-145
SF-539 = tested on: SF-539
A498 = tested on: A498
Hs-578T = tested on: Hs-578T
M19-MEL = tested on: M19-MEL
MDA-MB-435 = tested on: MDA-MB-435
HCT-116 = tested on: HCT-116
NCI/ADR-RES = tested on: NCI/ADR-RES
SR = tested on: SR
T47D = tested on: T47D
IGROV-1 = tested on: IGROV-1
MDA-N = tested on: MDA-N
PC-3 = tested on: PC-3
BT-549 = tested on: BT-549
MCF7 = tested on: MCF7
UACC-62 = tested on: UACC-62

## O=C(c1ccccc1)C(c1ccccc1)C1(O)C(=O)Nc2c(Cl)cc(Cl)cc21 (stereo not given)
LOX IMVI
  GI50: 19.5 µM (inactive)
OVCAR-8
  GI50: 16.1 µM (inactive)
SK-OV-3
  GI50: 30.2 µM (inactive)
UO-31
  GI50: 18.9 µM (inactive)
SK-MEL-2
  GI50: 16.8 µM (inactive)
COLO 205
  GI50: 19.1 µM (inactive)
TK-10
  GI50: 18.3 µM (inactive)
M14
  GI50: 17.9 µM (inactive)
HT-29
  GI50: 23.9 µM (inactive)
HOP-18
  GI50: 14.9 µM (inactive)
HOP-62
  GI50: > 10 µM (inactive)
CCRF-CEM
  GI50: 14 µM (inactive)
OVCAR-3
  GI50: 26 µM (inactive)
OVCAR-4
  GI50: 13.7 µM (inactive)
SF-268
  GI50: 21.2 µM (inactive)
UACC-257
  GI50: 18.6 µM (inactive)
SNB-19
  GI50: 21.7 µM (inactive)
KM12
  GI50: 23 µM (inactive)
HL-60
  GI50: 12.6 µM (inactive)
DMS-273
  GI50: 27.4 µM (inactive)
RXF 631
  GI50: 18.9 µM (inactive)
U-251
  GI50: 26.2 µM (inactive)
ACHN
  GI50: 17.1 µM (inactive)
HCC 2998
  GI50: 16.3 µM (inactive)
DMS-114
  GI50: 16.5 µM (inactive)
SN12C
  GI50: > 100 µM (inactive)
EKVX
  GI50: 14.2 µM (inactive)
HCT-15
  GI50: 39.4 µM
A549
  GI50: 18.9 µM (inactive)
NCI-H460
  GI50: 28.2 µM (inactive)
DLD-1
  GI50: 17.7 µM (inactive)
Malme-3M
  GI50: 18.6 µM (inactive)
MOLT-4
  GI50: 20.3 µM (inactive)
SW-620
  GI50: 14.4 µM (inactive)
OVCAR-5
  GI50: 17.1 µM (inactive)
SF-295
  GI50: 17.7 µM (inactive)
XF498
  GI50: > 100 µM (inactive)
NCI-H522
  GI50: 16.6 µM (inactive)
CAKI-1
  GI50: 17.4 µM (inactive)
SNB-78
  GI50: 24.7 µM (inactive)
SNB-75
  GI50: 15.3 µM (inactive)
RPMI-8226
  GI50: 8.34 µM (inactive)
NCI-H226
  GI50: 16.7 µM (inactive)
NCI-H23
  GI50: 18 µM (inactive)
SK-MEL-28
  GI50: 18.9 µM (inactive)
RXF 393
  GI50: 19.1 µM (inactive)
K562
  GI50: 15.5 µM (inactive)
SK-MEL-5
  GI50: 15.8 µM (inactive)
HOP-92
  GI50: 18.9 µM (inactive)
LXFL 529
  GI50: 11.4 µM (inactive)
786-0
  GI50: 14.7 µM (inactive)
KM-20L2
  GI50: 36.8 µM (inactive)

## COc1ccc(-c2oc3cc(O)c(OC)c(O)c3c(=O)c2O)cc1 [BETULETOL]
LOX IMVI
  GI50: 6.19 µM (inactive)
MDA-MB-231
  GI50: 12.9 µM (inactive)
OVCAR-8
  GI50: 9.95 µM (inactive)
SK-OV-3
  GI50: 6.22 µM (inactive)
UO-31
  GI50: 6.46 µM (inactive)
SK-MEL-2
  GI50: > 51.8 µM (inactive)
DU-145
  GI50: 2.36 µM (inactive)
COLO 205
  GI50: 23.7 µM (inactive)
TK-10
  GI50: 19.5 µM (inactive)
M14
  GI50: 17.8 µM (inactive)
HT-29
  GI50: 17.1 µM (inactive)
HOP-18
  GI50: 67.3 µM (inactive)
HOP-62
  GI50: 4.73 µM (inactive)
SF-539
  GI50: 8.32 µM (inactive)
CCRF-CEM
  GI50: 5.16 µM (inactive)
OVCAR-3
  GI50: 9.38 µM (inactive)
OVCAR-4
  GI50: 30.2 µM (inactive)
A498
  GI50: 7.11 µM (inactive)
SF-268
  GI50: 8.61 µM (inactive)
UACC-257
  GI50: 54 µM (inactive)
SNB-19
  GI50: 10.1 µM (inactive)
KM12
  GI50: 12 µM (inactive)
HL-60
  GI50: 2.9 µM (inactive)
DMS-273
  GI50: 9.68 µM (inactive)
RXF 631
  GI50: 21.5 µM (inactive)
U-251
  GI50: 4.47 µM (inactive)
ACHN
  GI50: 2.77 µM (inactive)
Hs-578T
  GI50: 15.2 µM (inactive)
HCC 2998
  GI50: 19.3 µM (inactive)
M19-MEL
  GI50: 38.8 µM (inactive)
SN12C
  GI50: 5.6 µM (inactive)
MDA-MB-435
  GI50: 17.9 µM (inactive)
EKVX
  GI50: 18.9 µM (inactive)
HCT-116
  GI50: 8.75 µM (inactive)
HCT-15
  GI50: 4.84 µM
A549
  GI50: 3.33 µM (inactive)
NCI-H460
  GI50: 1.74 µM (inactive)
DLD-1
  GI50: 13.4 µM (inactive)
Malme-3M
  GI50: 10.5 µM (inactive)
MOLT-4
  GI50: 1.85 µM (inactive)
SW-620
  GI50: 20.5 µM (inactive)
NCI/ADR-RES
  GI50: 6.73 µM (inactive)
OVCAR-5
  GI50: 26.9 µM (inactive)
SF-295
  GI50: 6.08 µM (inactive)
XF498
  GI50: 24.9 µM (inactive)
NCI-H522
  GI50: 10.2 µM (inactive)
CAKI-1
  GI50: 6.03 µM (inactive)
SR
  GI50: 3.08 µM (inactive)
SNB-78
  GI50: 81.3 µM (inactive)
SNB-75
  GI50: 10.4 µM (inactive)
RPMI-8226
  GI50: 6.1 µM (inactive)
T47D
  GI50: 9.75 µM (inactive)
IGROV-1
  GI50: 15.1 µM (inactive)
NCI-H226
  GI50: 5.19 µM (inactive)
MDA-N
  GI50: 13.7 µM (inactive)
PC-3
  GI50: 9.55 µM (inactive)
BT-549
  GI50: 8.36 µM (inactive)
NCI-H23
  GI50: 5.62 µM (inactive)
MCF7
  GI50: 4.44 µM (inactive)
SK-MEL-28
  GI50: 20.2 µM (inactive)
RXF 393
  GI50: 12 µM (inactive)
K562
  GI50: 10.9 µM (inactive)
SK-MEL-5
  GI50: 6.14 µM (inactive)
HOP-92
  GI50: 6.7 µM (inactive)
LXFL 529
  GI50: 20.1 µM (inactive)
786-0
  GI50: 6.08 µM (inactive)
KM-20L2
  GI50: 39.7 µM (inactive)
UACC-62
  GI50: 10.3 µM (inactive)
